Measurements as given in US9493420B2, “Quinoline derivatives and uses thereof” (Portland State University, priority 2005, dated 2016).

Assay: Heme binding by UV-VIS spectrophotometric titration (association constant)
Conditions: pH 5.7; heme assumed dimeric (μ-oxo)
Text: Optionally, heme binding of RCQ compounds can be determined by any method known in the art, including, for example, spectrophotometric methods, like UV-VIS spectroscopy or NMR spectroscopy. Methods of measuring heme binding to a variety of molecules using the UV-VIS spectrum have been described (see, e.g., Xu et al., J. Inorg. Biochem., 86 (2-3):617-625, 2001; Xu et al., Antimicrob. Agents Chemother., 46(1):144-150, 2002). Generally, a heme-binding compound (such as a disclosed RCQ) is mixed in increasing concentration with heme (or a heme model compound, such as porphyrin or metalloporphyrin) and the absorbance spectrum is measured from the ultraviolet region well into the visible region (from about 300 nm to about 750 nm). This spectral range includes the so-called Soret and Q-band regions that arise from porphyrin or metalloporphyrin absorbance. Upon interaction between a heme-binding compound and heme (or a heme model compound, such as porphyrin or metalloporphyrin), decreased absorbance in the Soret region is observed. […]
In particular examples, the formation of heme-RCQ complexes can be determined by UV-VIS spectrophotometric titration, using a variety of commercially available spectrophotometers (such as a Varian-Cary 3E spectrophotometer). […] Optionally, pH can be monitored throughout the procedure to ensure that it remains unchanged. […]

- heme2.RCQ_02 association constant: approximately 7.5×10^5 M^−1
Structure (SMILES): CN(CCCNc1ccnc2cc(Cl)ccc12)CCCN1c2ccccc2CCc2ccccc21 [RCQ_02, N′-(7-Chloro-quinolin-4-yl)-N-[3-(10,11-dihydro-dibenzo[b,f]azepin-5-yl)-propyl]-N-methyl-propane-1,3-diamine]
